The test system of assay [1] is PBL of SLE patients. As to the kind of experiment: TGF-β secretion by PBL of SLE patients stimulated with the human 16/6Id mAb (ELISA). The format is cell-based. To be noted: for secretion of TGF-β by PBL: one representative SLE patient, FIG. 9; for Maximum Up-regulation % (TGF-β secretion): percent secretion above that with 16/6Id alone (mean 636 ± 25 pg/ml = 100%); for Up-regulation of TGF-β %: share of 19 SLE patients with up-regulation. As for the experimental part: For this purpose, supernatants were removed from cultures of PBL of various SLE patients following 48 hours incubation with the human 16/6Id mAb in the absence or presence of the peptides hCDR1 or hCDR3. TGF-β was determined by ELISA according to the manufacturer's instructions. Briefly, Maxisorb plates (Nunc) were coated with recombinant human TGFβsRII/Fc chimera (R&D Systems) diluted in PBS (100 ng/ml). After blocking, cell supernatants were added. After 18 hours incubation the detecting biotinylated anti-human TGF-β antibody (R&D Systems) was added. The substrate solution used was the TMB Colour Reagent (Helix Diagnostics) and enzyme activity was evaluated by the MRX ELISA reader using the 570 nm and 630 nm filters.
(In an ELISA, binding on a coated surface is turned into a signal by an enzyme label.)

For assay [2], the system named is PBL of SLE patients. The assay can be described thus: IL-2 secretion by PBL of SLE patients stimulated with the human 16/6Id mAb (CTLL line). The format is cell-based. To be noted: for patients whose PBL IL-2 secretion was inhibited: 23 responders stimulated by the human 16/6Id; for Maximum inhibition % (IL-2 secretion): PBL of 23 responders; for Maximum inhibition % (IL-2 secretion) / Inhibitory Activity* % (IL-2 secretion): IL-2 secretion with 16/6 Id alone = 100%; for inhibition of the IL-2 secretion by PBL: PBL of one SLE patient, FIG. 8; for Inhibitory Activity* % (IL-2 secretion): share of 23 responders with inhibition of 50% or more. As for the experimental part:
It was of interest to find out whether the hCDR peptides are capable of inhibiting IL-2 secretion by PBL of SLE patients following stimulation with the human 16/6Id mAb. […] To this end, PBL of SLE patients were incubated with the human 16/6Id mAb in the absence or presence of the peptides hCDR1 or hCDR3. Supernatants of the cultures were collected following 48 hours of incubation. Assays to determine levels of IL-2 in the supernatants were performed using the CTLL IL-2 dependent line. Briefly, cells of the CTLL line (2×10^4/well) were incubated in the presence of the different supernatants for 24 hours, followed by the addition of ^3H-thymidine for an additional 18-hour incubation period. Cells were then harvested and radioactivity counted using a β-counter. Results were calculated based on recombinant human IL-2 used as a standard. The ability of the peptides to inhibit the IL-2 secretion of PBL of 23 responders stimulated by the human 16/6Id was tested. […] Inhibition of proliferative responses of PBL directly correlated with IL-2 inhibition by the CDR-based peptides.

Assay [3] relates to PBL of SLE patients. As to the kind of experiment: Proliferation of PBL of SLE patients stimulated with the mitogen PHA. It counts as cell-based, human. To be noted: PBL of one SLE patient; PHA 2 μg/ml; FIG. 5. The procedure: To this end the peptides hCDR1 or hCDR3 were added to cultures of PBL of SLE patients that were stimulated with the mitogen phytohemagglutinin (PHA, 2 μg/ml).

Results on two sequences are retold here after patent US7858738B2, “Synthetic human peptides and pharmaceutical compositions comprising them for the treatment of systemic lupus erythematosus” (Yeda Research and Development Co., Ltd., priority 2001, dated 2010).

Consider “GYYWSWIRQPPGKGEEWIG (Human) [hCDR1, 19-mer peptide based on the CDR1 of the heavy chain of the human 16/6Id mAb]”, for which, in assay [1], the “secretion of TGF-β by PBL” value is on record as “significant up-regulation”, the “Maximum Up-regulation % (TGF-β secretion)” value is 305 ± 221% and the “Up-regulation of TGF-β %” value is on record as 100 (19/19) %. For the same sequence, in assay [2], the “patients whose PBL IL-2 secretion was inhibited” value is given as 21/23, the “Maximum inhibition % (IL-2 secretion)” value is 84 ± 31%, the “inhibition of the IL-2 secretion by PBL” value was 100% and the “Inhibitory Activity* % (IL-2 secretion)” value is 91 (21/23) %. In assay [3], the “inhibition of the proliferative responses of the PBL to the mitogen PHA” value is on record as “could not inhibit”.

For “YYCARGLLRGGWNDVDYYGMDV (Human) [hCDR3, peptide based on the CDR3 of the heavy chain of the human 16/6Id mAb]”, in assay [1], the “secretion of TGF-β by PBL” value is reported as “significant up-regulation”, the “Maximum Up-regulation % (TGF-β secretion)” value amounted to 338 ± 242% and the “Up-regulation of TGF-β %” value was 100 (19/19) %. In assay [2], the “patients whose PBL IL-2 secretion was inhibited” value is reported as 19/23, the “Maximum inhibition % (IL-2 secretion)” value is recorded as 78 ± 34%, the “inhibition of the IL-2 secretion by PBL” value is given as 100% and the “Inhibitory Activity* % (IL-2 secretion)” value was 83 (19/23) %. The “inhibition of the proliferative responses of the PBL to the mitogen PHA” value in assay [3] is given as “could not inhibit”.
